Test results published in patent US7833983B2, “Analytical method and kit thereof” (Phadia, AB, priority 2003, dated 2010).
“And” between values parts separate entries of the source, which are not always exact repeats. Equal entries are not always repeated. Non-standard residues stand in square brackets, D forms with d. No end group written: not given here. Arg(Me2s) = CN=C(NC)NCCC[C@H](N)C(=O)O

How the values were obtained:
anti-Sm antibodies [1] = assay: Epitope-mapping with immobilized oligopeptides (peptide arrays) probed with anti-Sm sera; assay type: binding, human; conditions: panel of five anti-Sm sera (#36, #37, #31, #84, #Sm), serum 1:100, ECL detection
Description: The published sequences of SmD1, P13641, (Rokeach et al., 1988) and SmD3, P43331, (Lehmeier et al., 1994) were used to synthesize overlapping 15 mer peptides with a pipetting robot according to the protocol described by Gausepohl and Behn (2002). The C-terminal extensions of both polypeptides were synthesized with an offset of 2 amino acids (13 amino acids overlap). Each arginine containing peptide was synthesized as three variants, with natural arginine, with sDMA or with asymmetrical dimethylarginine (asDMA) at the respective positions. Later on, a highly reactive peptide of SmD3 was synthesized with certain combinations of natural arginine and sDMA. Following completion of the peptide synthesis non-specific binding sites were blocked by over-night incubation of the membranes in blocking buffer (BB) at room temperature (RT). After one washing step membranes were incubated with serum samples at a dilution of 1:100 in BB for 2 h at RT. Unbound antibodies were removed by three washing steps. For detection peroxidase conjugated goat-anti-human IgG antibody was diluted 1:5000 in BB and incubated for 75 min (RT). Superfluous secondary antibodies were removed by three washing steps. Finally, bound antibodies were visualized using the enhanced chemoluminiscence (ECL) detection-system.
Epitope fine-mapping of the C-terminal extensions of SmD1 and D3. To evaluate the effect of arginine-dimethylation on the antigenicity of SmD1 and SmD3 and to map relevant epitopes on both polypeptides a panel of anti-Sm sera was tested with peptide arrays (15 mer, 2 offset) covering the C-terminal region of SmD1 (P13641) and SmD3 (P43331).

pI of the peptide = assay type: physicochemical
anti-Sm antibodies [2] = assay: Correlation study: anti-S33 ELISA versus commercially available anti-Sm antibody tests; assay type: binding, human; conditions: for Reactivity of control serum: suggested cut-off 13
Procedure: Randomly selected SLE sera (n=50) and various controls (n=100) were tested using the commercially available anti-Sm antibody tests from different suppliers (Sm test A—Sm Test D) and the results were compared to the findings of the anti-S33 ELISA test.

anti-S33 antibodies = assay: S33-peptide ELISA (Varelisa protocol) with patient and control sera; assay type: binding, human
Description: (§1) Sera (n=628) were collected from patients suffering from systemic lupus erytlhrematosus (SLE; n=176), rheumatoid arthritis (RA, n=86), Sjögren syndrome (SS, n=24); mixed connective tissue disease (MCTD, n=26), scleroderma (SSc, n=26) and polymyositis/dermatomyositis (PM/DM, n=13). All patients were classified according to the ACR-criteria for each disease (Tan et al., 1982; Arnett et al., 1988). To further assess the assay specificity, we analyzed a group of sera from patients with infection diseases (n=77) including hepatitis-C (HCV; n=30), cytomegalo (CMV; n=22) and Epstein-Barr Virus (EBV; n=25) as well as from 192 healthy blood donors. All sera were stored at −80° C. until use. For epitope-mapping a panel of five sera containing anti-Sm antibodies was used. As negative controls autoimmune sera with other antibody specificities than anti-Sm were selected.
Preparation of ELISA-plates. The lyophilized S33 peptide was used to prepare a stock solution of 10 μg/μl, which was stored in aliquots at −20° C. until use. Binding of the peptide to ELISA plates was carried out using 2.5 μg/ml of the peptide in coating buffer in a final volume of 120 μl per well. The coating procedure was carried out at 15° C. for 20 h. Unspecific binding sites were blocked with blocking solution. After discarding the blocking solution solid phases were dried at 37° C. for 2 h and sealed.
The assay was performed according to the general protocol of the Varelisa® system (Pharmacia Diagnostics, Freiburg). […] The cut-off was technically set to 13 U/ml after ROC-analysis. PPVs and NPVs were calculated at different cut-off values. […]
A 15 amino acid soluble peptide displaying highest sensitivity and specificity in the SPOT-assay (^108AARGsdRGRGMGRGNIF^122) (SEQ ID NO: 1) was synthesized for technical reasons with an additional Cys at the C-terminus. This peptide was subsequently used to develop an ELISA system based on the general protocol of the Varelisa® tests (Pharmacia, Freiburg, Germany).

[3] = test system: anti-centromere antibodies (ACA; serum CEN); assay: Epitope-mapping with immobilized oligopeptides (peptide arrays) probed with control sera (e.g. CEN); assay type: binding, human; conditions: serum 1:100
Description: as §1
The published sequences of SmD1, P13641, (Rokeach et al., 1988) and SmD3, P43331, (Lehmeier et al., 1994) were used to synthesize overlapping 15 mer peptides with a pipetting robot according to the protocol described by Gausepohl and Behn (2002). The C-terminal extensions of both polypeptides were synthesized with an offset of 2 amino acids (13 amino acids overlap). […]

[4] = Rheumatic diseases (181), cut-off 13 U/ml
[5] = randomly selected SLE sera (n = 101)

Substance: AAsdRGsdRGsdRGMGsdRGNIF (AA[Arg(Me2s)]G[Arg(Me2s)]G[Arg(Me2s)]GMG[Arg(Me2s)]GNIF) [peptide no. 77, SmD3 aa 108-122 with all arginines as sDMA]
- number of anti-Sm sera recognizing the peptide (anti-Sm antibodies [1]): three out of five
- number of anti-Sm sera recognizing the peptide (anti-Sm antibodies [1]; listed as SEQ ID NO: 3): Three out of five

Substance: AARG sdR GRGMGRGNIF (AARG[Arg(Me2s)]GRGMGRGNIF) [S33, SmD3 aa 108-122 mimotope peptide with a single symmetrical dimethylarginine at position 112; ELISA version with additional C-terminal Cys]
- pI (pI of the peptide): > 12.88
- % of SLE sera positive (anti-Sm antibodies [2]; 50 randomly selected SLE sera): 12%
- number of SLE sera positive (anti-Sm antibodies [2]; 50 randomly selected SLE sera): 6
- % of controls positive (anti-Sm antibodies [2]; 100 controls): 0%
- number of controls positive (anti-Sm antibodies [2]; 100 controls): none
- Reactivity of control serum (anti-Sm antibodies [2]; serum No. 105, ID 25516, MCTD): 3.0 U/ml
- Reactivity of control serum (anti-Sm antibodies [2]; serum No. 107, ID 25518, MCTD): 1.0 U/ml
- Reactivity of control serum (anti-Sm antibodies [2]; serum No. 108, ID 25519, MCTD): 0.0 U/ml
- Reactivity of control serum (anti-Sm antibodies [2]; serum No. 110, ID 25521, MCTD): 0.5 U/ml
- Reactivity of control serum (anti-Sm antibodies [2]; serum No. 112, ID 25523, MCTD): 0.0 U/ml
- Reactivity of control serum (anti-Sm antibodies [2]; serum No. 121, ID 25532, MCTD): 2.6 U/ml
- Reactivity of control serum (anti-Sm antibodies [2]; serum No. 123, ID 25534, MCTD): 1.1 U/ml
- Reactivity of control serum (anti-Sm antibodies [2]; serum No. 126, ID 25537, MCTD): 3.2 U/ml
- Reactivity of control serum (anti-Sm antibodies [2]; serum No. 128, ID 25539, MCTD): 0.7 U/ml
- Reactivity of control serum (anti-Sm antibodies [2]; serum No. 129, ID 25540, MCTD): 4.1 U/ml
- Reactivity of control serum (anti-Sm antibodies [2]; serum No. 132, ID 25543, MCTD): 2.4 U/ml
- Reactivity of control serum (anti-Sm antibodies [2]; serum No. 133, ID 25544, MCTD, SLE): 9.9 U/ml
- Reactivity of control serum (anti-Sm antibodies [2]; serum No. 137, ID 25448, SSc): 2.2 U/ml
- Reactivity of control serum (anti-Sm antibodies [2]; serum No. 145, ID 25456, MCTD): 1.1 U/ml
- number of anti-Sm sera recognizing the peptide (anti-Sm antibodies [1]): all of the five
- Mean value (anti-S33 antibodies; CMV (22)): 0.8 U/ml
- Top value (anti-S33 antibodies; CMV (22)): 3.2 U/ml
- No. of anti-S33-positive sera (anti-S33 antibodies; CMV (22), cut-off 13 U/ml): 0
- Mean value (anti-S33 antibodies; EBV (25)): 0.78 U/ml
- Top value (anti-S33 antibodies; EBV (25)): 3.3 U/ml
- Mean value (anti-S33 antibodies; HCV (30)): 0.42 U/ml
- Top value (anti-S33 antibodies; HCV (30)): 1.1 U/ml
- No. of anti-S33-positive sera (anti-S33 antibodies; HCV (30), cut-off 13 U/ml): 0
- Mean value (anti-S33 antibodies; Healthy individuals (192)): 2.2 U/ml and 2.21 U/ml
- Top value (anti-S33 antibodies; Healthy individuals (192)): 11.5 U/ml
- No. of anti-S33-positive sera (anti-S33 antibodies; Healthy individuals (192), cut-off 13 U/ml): 0
- Mean value (anti-S33 antibodies; Infectious diseases (77)): 0.67 U/ml
- Top value (anti-S33 antibodies; Infectious diseases (77)): 3.3 U/ml
- No. of anti-S33-positive sera (anti-S33 antibodies; Infectious diseases (77), cut-off 13 U/ml): 0
- Mean value (anti-S33 antibodies; MCTD (26)): 3.1 U/ml
- Top value (anti-S33 antibodies; MCTD (26)): 12.8 U/ml
- No. of anti-S33-positive sera (anti-S33 antibodies; MCTD (26), cut-off 13 U/ml): 0
- Mean value (anti-S33 antibodies; PM/DM (13)): 2.8 U/ml
- Top value (anti-S33 antibodies; PM/DM (13)): 9.6 U/ml
- No. of anti-S33-positive sera (anti-S33 antibodies; PM/DM (13), cut-off 13 U/ml): 0
- Mean value (anti-S33 antibodies; RA (86)): 1.6 U/ml
- Top value (anti-S33 antibodies; RA (86)): 24.6 U/ml
- % of anti-S33-positive sera (anti-S33 antibodies; RA (86), cut-off 13 U/ml): (1.2) %
- No. of anti-S33-positive sera (anti-S33 antibodies; RA (86), cut-off 13 U/ml): 1
- Mean value (anti-S33 antibodies; Rheumatic diseases (181)): 2.2 U/ml
- Top value (anti-S33 antibodies; Rheumatic diseases (181)): 24.6 U/ml
- % of anti-S33-positive sera (anti-S33 antibodies; [4]): (0.6) %
- No. of anti-S33-positive sera (anti-S33 antibodies; [4]): 1
- Mean value (anti-S33 antibodies; SLE (n = 176)): 43 U/ml and 43.0 U/ml
- No. of anti-S33-positive sera (anti-S33 antibodies; SLE (n = 176), cut-off 13 U/ml): 28 and 15
- anti-S33 peptide reactivity (anti-S33 antibodies; SLE patient #89, anti-SmD negative): 15.4 units
- anti-S33 peptide reactivity (anti-S33 antibodies; SLE patient #92, anti-SmD negative): 21.3 units
- anti-S33 peptide reactivity (anti-S33 antibodies; SLE patient #9811, anti-SmD negative): 13.9 units
- anti-S33 peptide reactivity (anti-S33 antibodies; SLE patient #20627, anti-SmD negative): 41.3 units
- immunoresponse to the new Sm antigen (S33) (anti-S33 antibodies; SLE patient, beginning of the 18 month follow-up study, inactive phase of disease): 337.5 U/ml
- Mean value (anti-S33 antibodies; SSc (26)): 2.4 U/ml
- Top value (anti-S33 antibodies; SSc (26)): 4.3 U/ml
- No. of anti-S33-positive sera (anti-S33 antibodies; SSc (26), cut-off 13 U/ml): 0
- reactivity range (anti-S33 antibodies; blood donors): 0.4-11.5 U/ml
- % of control sera tested positive (anti-S33 antibodies; controls (n=449), cut-off 13 U/ml): 0.2%
- Mean value (anti-S33 antibodies; pSS (24)): 1.9 U/ml
- Top value (anti-S33 antibodies; pSS (24)): 3.9 U/ml
- No. of anti-S33-positive sera (anti-S33 antibodies; pSS (24), cut-off 13 U/ml): 0
- S33+ among sera with Aab to La (%) (anti-S33 antibodies; [5]): 18.2%
- S33+ among sera with Aab to La (number) (anti-S33 antibodies; [5]): 4/22
- S33+ among sera with Aab to Ro-52 (%) (anti-S33 antibodies; [5]): 22.7%
- S33+ among sera with Aab to Ro-52 (number) (anti-S33 antibodies; [5]): 5/22
- S33+ among sera with Aab to Ro-60 (%) (anti-S33 antibodies; [5]): 25%
- S33+ among sera with Aab to Ro-60 (number) (anti-S33 antibodies; [5]): 12/48
- S33+ among sera with Aab to SmBB′ (%) (anti-S33 antibodies; [5]): 50%
- S33+ among sera with Aab to SmBB′ (number) (anti-S33 antibodies; [5]): 11/22
- S33+ among sera with Aab to SmD (%) (anti-S33 antibodies; [5]): 68.8%
- S33+ among sera with Aab to SmD (number) (anti-S33 antibodies; [5]): 11/16
- S33+ among sera with Aab to U1-68 kD (%) (anti-S33 antibodies; [5]): 50%
- S33+ among sera with Aab to U1-A (%) (anti-S33 antibodies; [5]): 48%
- S33+ among sera with Aab to U1-A (number) (anti-S33 antibodies; [5]): 12/25
- S33+ among sera with Aab to U1-C (%) (anti-S33 antibodies; [5]): 42.3%
- S33+ among sera with Aab to U1-C (number) (anti-S33 antibodies; [5]): 11/26
- S33+ among sera with Aab to dsDNA (%) (anti-S33 antibodies; [5]): 25.5%
- S33+ among sera with Aab to dsDNA (number) (anti-S33 antibodies; [5]): 13/51
- S33+ among sera with Aab to histone (%) (anti-S33 antibodies; [5]): 26.3%
- S33+ among sera with Aab to histone (number) (anti-S33 antibodies; [5]): 10/38
- S33+ among sera with Aab to β2-Glycoprotein (%) (anti-S33 antibodies; [5]): 25%
- S33+ among sera with Aab to β2-Glycoprotein (number) (anti-S33 antibodies; [5]): 4/16
- antibody binding of control sera [3]: not with the controls
